Test results published in ChEMBL document CHEMBL1697781, “Assessment of the health effects of chemicals in humans: II. Construction of an adverse effects database for QSAR modeling” (Curr Drug Discov Technol, 2004).

Key:
Conditions in all cases: human; call rule not given here
Hepatotoxicity [1] = experiment: FDA HLAED, serum glutamic pyruvic transaminase (SGPT) increase
Hepatotoxicity [2] = experiment: FDA HLAED, serum glutamic oxaloacetic transaminase (SGOT) increase
Hepatotoxicity [3] = experiment: FDA HLAED, lactate dehydrogenase (LDH) increase
Hepatotoxicity [4] = experiment: FDA HLAED, gamma-glutamyl transferase (GGT) increase
Hepatotoxicity [5] = experiment: FDA HLAED, alkaline phosphatase increase
Hepatotoxicity [6] = experiment: FDA HLAED, liver enzyme composite activity
Wherever GGT Increase - Index Value is given: reference of the scale not given here.
Wherever LDH Increase - Index Value is given: reference of the scale not given here.

Compound | SGPT Increase - Activity Score (Hepatotoxicity [1]) | SGPT Increase - Index Value (Hepatotoxicity [1]) | SGPT Increase - Number of Reports (Hepatotoxicity [1]) | SGOT Increase - Activity Score (Hepatotoxicity [2]) | SGOT Increase - Index Value (Hepatotoxicity [2]) | SGOT Increase - Number of Reports (Hepatotoxicity [2]) | LDH Increase - Activity Score (Hepatotoxicity [3]) | LDH Increase - Index Value (Hepatotoxicity [3]) | LDH Increase - Number of Reports (Hepatotoxicity [3]) | GGT Increase - Activity Score (Hepatotoxicity [4]) | GGT Increase - Index Value (Hepatotoxicity [4]) | GGT Increase - Number of Reports (Hepatotoxicity [4]) | Alkaline Phosphatase Increase - Activity Score (Hepatotoxicity [5]) | Alkaline Phosphatase Increase - Index Value (Hepatotoxicity [5]) | Alkaline Phosphatase Increase - Number of Reports (Hepatotoxicity [5]) | Composite Activity - Active (Hepatotoxicity [6]) | Composite Activity - Marginal (Hepatotoxicity [6]) | Composite Activity - Score (Hepatotoxicity [6]) | also measured
C[C@H]1O[C@H](O[C@H]2[C@H](O)[C@@H](O)[C@@H](O[C@H]3[C@H](O)[C@@H](O)C(O)O[C@@H]3CO)O[C@@H]2CO)[C@H](O)[C@@H](O)[C@@H]1N[C@H]1C=C(CO)[C@@H](O)[C@H](O)[C@H]1O (some centres not stated) [ACARBOSE] | Active | 5.2 | >= 4 | Active | 5.2 | >= 4 | Inactive | 2.6 | < 4 | Active | 4.3 | >= 4 | Inactive | 0 | < 4 | 3 | 0 | Active | 
CCCC(=O)Nc1ccc(OCC(O)CNC(C)C)c(C(C)=O)c1 (configuration not stated) [ACEBUTOLOL] | Marginally Active | 3.3 | >= 4 | Inactive | 2.6 | >= 4 | Marginally Active | 3.3 | >= 4 | Inactive | 0 | < 4 | Marginally Active | 3.9 | >= 4 | 0 | 3 | Inactive | 
CC(=O)Nc1ccc(O)cc1 [ACETAMINOPHEN] | Active | No Shipping Units | >= 4 | Active | No Shipping Units | >= 4 | Marginally Active | No Shipping Units | >= 4 | Marginally Active | No Shipping Units | >= 4 | Marginally Active | No Shipping Units | >= 4 | 2 | 3 | Active | 
CC(=O)NO [ACETOHYDROXAMIC ACID] | Inactive | 0 | < 4 | Inactive | 0 | < 4 | Inactive | 0 | < 4 | Inactive | 0 | < 4 | Inactive | 0 | < 4 | 0 | 0 | Inactive | 
Nc1nc2c(ncn2COCCO)c(=O)[nH]1 [ACYCLOVIR] | Inactive | 0.1 | < 4 | Inactive | 0.9 | >= 4 | Inactive | 0.1 | < 4 | Inactive | 0 | < 4 | Inactive | 0.9 | >= 4 | 0 | 0 | Inactive | 
Nc1ncnc2c1ncn2[C@@H]1O[C@H](CO)[C@@H](O)[C@H]1O [ADENOSINE] | Inactive | 0 | < 4 | Inactive | 0 | < 4 | Inactive | 0 | < 4 | Inactive | 0 | < 4 | Inactive | 0 | < 4 | 0 | 0 | Inactive | 
CC(C)(C)NCC(O)c1ccc(O)c(CO)c1 (configuration not stated) [ALBUTEROL] | Inactive | 0 | < 4 | Inactive | 0.1 | < 4 | Inactive | 0 | < 4 | Inactive | 0 | < 4 | Inactive | 0 | < 4 |  |  |  | Composite Activity - Active (Hepatotoxicity [6]; Liver): 0; Composite Activity - Marginal (Hepatotoxicity [6]; Liver): 0; Composite Activity - Score (Hepatotoxicity [6]; Liver): Inactive
CCC(=O)OCC(=O)[C@@]1(OC(=O)CC)[C@H](C)C[C@H]2[C@H]3[C@H]([C@@H](O)C[C@@]21C)[C@@]1(C)C=CC(=O)C=C1C[C@H]3Cl [ALCLOMETASONE DIPROPIONATE] | Inactive | 0 | < 4 | Inactive | 0 | < 4 | Inactive | 0 | < 4 | Inactive | 0 | < 4 | Inactive | 0 | < 4 | 0 | 0 | Inactive | 
C[C@@H]1C[C@H]2[C@H]3[C@H]([C@@H](O)C[C@]2(C)[C@@]1(O)C(=O)CO)[C@@]1(C)C=CC(=O)C=C1C[C@H]3Cl [ALCLOMETASONE] | Inactive | 0 | < 4 | Inactive | 0 | < 4 | Inactive | 0 | < 4 | Inactive | 0 | < 4 | Inactive | 0 | < 4 | 0 | 0 | Inactive | 
